In brackets after ≈: the same amount, converted by molar mass. Marks after values point to notes of the source that are not given here.
Tested on: V23 1322 Burkholderia cepacia
Assay: MIC assay, CAMHB with alginate oligomer, no visible growth
Type: cell-based
Details: Table 5, V23 MDR Burk cep

**Q.** How did the MIC (Burkholderia cepacia, OligoCF-5/20 0G) turn out when `CC1(C)C[C@@H]1C(=O)N/C(=C\CCCCSC[C@H](N)C(=O)O)C(=O)O` [Primaxin, Imipenem/cilastatin] was run?
**A.** 32 µg/mL (≈ 89.3 µM)

**Q.** And the MIC (OligoCF-5/20 +2% G)?
**A.** 32 µg/mL (≈ 89.3 µM)

**Q.** And the MIC (OligoCF-5/20 +6% G)?
**A.** 32 µg/mL (≈ 89.3 µM)

**Q.** What about the MIC (OligoCF-5/20 +10% G) of the same molecule?
**A.** 8^† μg/ml

— US9801901B2, “Alginate oligomers for use in overcoming multidrug resistance in bacteria” (priority 2009, dated 2017)
